Values after ≈ are worked out from the molar mass of the structure shown. Values joined by “and” are separate entries in the source; they are usually repeats but may differ in a detail not shown here. Identical values can stand only once.
Key:
[1] = system: cancer cells; conditions: literature; cited from earlier work
[2] = literature / background; cited from earlier work
[3] = system: adriamycin-resistant mouse leukemic cells P388/ADR; test: In vitro cancer cell proliferation inhibition (Trypan Blue living cell count, 2 days culture); type: cell-based; conditions: three separate experiments
Protocol: (§1) Test example 1: In vitro cancer cell proliferation inhibiting text
(§2) Mouse leukemic cells p388/S and adriamycin-resistant mouse leukemic cells P388/ADR subculturally transplanted in the abdominal cavity of mice were taken out together with the asites therefrom, respectively, and after washing, suspended in RPMI 1640 media (each containing 10% fetal bovine serum and 10 μM 2-mercaptoethanol) to 2×10^5 cells/ml, respectively. 0.5 vol. % each of test solutions (solutions of the compound of the later-described in Example 1 in dimethylsulfoxide) were added to portions of each of these cell suspensions, respectively; and the mixtures were separately put into a 24-well culture plate and subjected to culture for 2 days in a 5% carbon dioxide culturing vessel. A 0.5% Trypan Blue solution was added to each of the cell culture broths in the same amount, and the 50% proliferation inhibitory concentration (IC50) of the compound of Example 1 was determined by counting the number of the cells not stained as living cells under a microscope.

[4] = system: mouse leukemic cells P388/S; test: as above; type: cell-based; conditions: three separate experiments
Protocol: as §1, §2

[5] = system: CDF male mice; test: Acute toxicity test (intraperitoneal, 10 days observation); type: in vivo, mouse; conditions: i.p.
Text: Test example 2: Acute toxicity test

| Compound | pharmacological actions on cancer cells [1] | toxicity [2] | IC50 ([3]; Mus musculus, P388/ADR, 48 h, read-out: Cytotoxicity IC50 (50% proliferation inhibitory concentration)) [ng/mL] | Cytotoxicity IC50 (50% proliferation inhibitory concentration) ([3]; 2880 min) | IC50 ([4]; Mus musculus, 48 h, read-out: Cytotoxicity IC50 (50% proliferation inhibitory concentration)) [ng/mL] | Cytotoxicity IC50 (50% proliferation inhibitory concentration) ([4]; 2880 min) | acute toxicity symptoms: diarrhea or constipation ([5]; groups of high dose) | acute toxicity symptoms: lie of hair ([5]; on and after one day after administration) | acute toxicity symptoms: walking problems and paralysis ([5]; survival cases in the 47 mg/kg administration group) | body weight change ([5]; up to 2 to 4 days after administration and thereafter) |
| --- | --- | --- | --- | --- | --- | --- | --- | --- | --- | --- |
| COc1cc2c(c(OC)c1OC)-c1ccc(OC)c(=O)cc1C(NC(C)=O)CC2 (stereo not shown) [colchicine] | has pharmacological actions on cancer cells, gout, etc. | strong toxicity |  |  |  |  |  |  |  |  |
| CNc1ccc2c(cc1=O)C(NC(=O)C1COC(C)(C)O1)CCc1cc(OC)c(OC)c(OC)c1-2 (stereo not shown) [Example 1, N-(O,O-isopropylideneglyceroyl)-N-methyldeacetylcolchiceinamide] |  |  | 9.2 (≈ 0.019 µM) | 11.0 ng/mL and 11.1 ng/mL | 3.2 (≈ 0.0066 µM) | 4.2 ng/mL and 4.6 ng/mL | cases where diarrhea or constipation arose were observed | the lie of hair got worse | walking problems as in the right leg and paralysis of one side of the body | tended to decrease up to 2 to 4 days after administration, but thereafter increased gradually |

From patent US5523320A, “N-methyldeacetylcolchiceinamide derivatives” (Ohgen Research Laboratories, Ltd., priority 1993, dated 1996)
